Tested on: S. pneumoniae D39V
Test: fitness (endpoint OD595 vs no drug) (fraction); higher = more growth
In short: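 Bacterial fitness was scored as optical density at the stationary-phase transition relative to the robust mean of no-drug control wells. Scores are capped at 1. The growth data were OD595 readings every 30 min for 14 h at 37 °C, background-subtracted against the first reading, from 384-well plates inoculated at OD595 0.01 in TSB, LB Lennox or CY.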
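Note: OD595 on entry to stationary phase over no-drug wells; at most 1.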

CC(=O)Oc1ccccc1C(=O)O [Acetylsalicylic acid] + CC1=C(C(=O)O)N2C(=O)[C@@H](NC(=O)[C@H](N)c3ccccc3)[C@H]2SC1 [Cephalexin]
fitness, one replicate
Conditions | first compound 250 µg/mL | first compound 500 µg/mL | first compound 1000 µg/mL
partner 0.125 µg/mL | 0.955 | 0.996 | 0.935
partner 0.25 µg/mL | 0.931 | 0.961 | 0.913
partner 0.5 µg/mL | 0.923 | 0.932 | 0.92

fitness
Conditions | first compound 250 µg/mL | first compound 500 µg/mL | first compound 1000 µg/mL
partner 1 µg/mL | 0.902 | 0.89 | 0.727
partner 2 µg/mL | 0.611 | – | 0.391
partner 4 µg/mL | 0.0549 | 0.0473 | 0.0319

CC(=O)Oc1ccccc1C(=O)O [Acetylsalicylic acid] + C[C@H]1c2cccc(O)c2C(=O)C2=C(O)[C@]3(O)C(=O)C(C(N)=O)=C(O)[C@@H](N(C)C)[C@@H]3[C@@H](O)[C@@H]21 [Doxycycline]
fitness, one replicate
Conditions | first compound 250 µg/mL | first compound 500 µg/mL | first compound 1000 µg/mL
partner 0.003875 µg/mL | ≥ 1 | ≥ 1 | 0.95
partner 0.00775 µg/mL | 0.998 | ≥ 1 | ≥ 1

fitness
Conditions | first compound 250 µg/mL | first compound 500 µg/mL | first compound 1000 µg/mL
partner 0.0155 µg/mL | 0.907 | 0.941 | 0.842
partner 0.031 µg/mL | 0.825 | 0.822 | 0.668

CC(=O)Oc1ccccc1C(=O)O [Acetylsalicylic acid] + CN[C@@H]1[C@H](O[C@H]2[C@H](O[C@H]3[C@H](O)[C@@H](O)[C@H](N=C(N)N)[C@@H](O)[C@@H]3N=C(N)N)O[C@@H](C)[C@]2(O)C=O)O[C@@H](CO)[C@H](O)[C@H]1O [Streptomycin]
fitness
Conditions | first compound 250 µg/mL | first compound 500 µg/mL | first compound 1000 µg/mL
partner 2 µg/mL | 0.954 | 0.928 | 0.806
partner 4 µg/mL | 0.977 | 0.892 | –
partner 8 µg/mL | 0.929 | 0.869 | –

partner 16 µg/mL, one replicate
Conditions | fitness
first compound 250 µg/mL | 0.772
first compound 500 µg/mL | 0.605
first compound 1000 µg/mL | 0.159

CN(C)[C@@H]1C(O)=C(C(N)=O)C(=O)[C@@]2(O)C(O)=C3C(=O)c4c(O)ccc(Cl)c4[C@@](C)(O)[C@H]3C[C@@H]12 [Chlortetracycline] + O=C1CN(/N=C/c2ccc([N+](=O)[O-])o2)C(=O)N1 [Nitrofurantoin]
fitness
Conditions | first compound 0.012 µg/mL | first compound 0.024 µg/mL | first compound 0.048 µg/mL | first compound 0.375 µg/mL | first compound 0.75 µg/mL | first compound 1.5 µg/mL
partner 1.285 µg/mL | 0.958 | 0.896 | 0.842 | – | – | –
partner 2 µg/mL | – | – | – | 0.034 | 0.0485 | 0.0311
partner 2.57 µg/mL | 0.96 | 0.951 | 0.836 | – | – | –
partner 4 µg/mL | – | – | – | 0.0275 | 0.0381 | 0.0293
partner 8 µg/mL | – | – | – | 0.0328 | 0.0386 | 0.0233

partner 5.14 µg/mL, one replicate
Conditions | fitness
first compound 0.012 µg/mL | 0.862
first compound 0.024 µg/mL | 0.898
first compound 0.048 µg/mL | 0.762

CN(C)[C@@H]1C(O)=C(C(N)=O)C(=O)[C@@]2(O)C(O)=C3C(=O)c4c(O)ccc(Cl)c4[C@@](C)(O)[C@H]3C[C@@H]12 [Chlortetracycline] + Clc1ccc(COC(Cn2ccnc2)c2ccc(Cl)cc2Cl)c(Cl)c1 [Miconazole]
fitness
Conditions | first compound 0.012 µg/mL | first compound 0.024 µg/mL | first compound 0.048 µg/mL | first compound 0.375 µg/mL | first compound 0.75 µg/mL | first compound 1.5 µg/mL
partner 1.073 µg/mL | 0.995 | 0.926 | 0.907 | – | – | –
partner 1.25 µg/mL | – | – | – | 0.0819 | 0.0494 | 0.0765
partner 2.145 µg/mL | 0.971 | 0.935 | 0.879 | – | – | –
partner 2.5 µg/mL | – | – | – | 0.104 | 0.0646 | 0.0895
partner 4.29 µg/mL | 0.913 | 0.883 | 0.793 | – | – | –
partner 5 µg/mL | – | – | – | 0.0525 | 0.0422 | 0.0647

CN(C)[C@@H]1C(O)=C(C(N)=O)C(=O)[C@@]2(O)C(O)=C3C(=O)c4c(O)ccc(Cl)c4[C@@](C)(O)[C@H]3C[C@@H]12 [Chlortetracycline] + CO[C@H]1/C=C/O[C@@]2(C)Oc3c(C)c(O)c4c(O)c(c(/C=N/N5CCN(C)CC5)c(O)c4c3C2=O)NC(=O)/C(C)=C\C=C\[C@H](C)[C@H](O)[C@@H](C)[C@@H](O)[C@@H](C)[C@H](OC(C)=O)[C@@H]1C [Rifampicin]
fitness, one replicate
Conditions | first compound 0.012 µg/mL | first compound 0.024 µg/mL | first compound 0.048 µg/mL
partner 0.025 µg/mL | 0.844 | 0.793 | 0.642
partner 0.2 µg/mL | 0 | 0 | 0

fitness
Conditions | first compound 0.012 µg/mL | first compound 0.024 µg/mL | first compound 0.048 µg/mL | first compound 0.375 µg/mL | first compound 0.75 µg/mL | first compound 1.5 µg/mL
partner 0.025 µg/mL | – | – | – | 0.0932 | 0.0627 | 0.0877
partner 0.05 µg/mL | 0.729 | 0.687 | 0.46 | 0.077 | 0.103 | 0.113
partner 0.1 µg/mL | 0.472 | 0.429 | 0.272 | 0.102 | 0.102 | 0.14

CN(C)[C@@H]1C(O)=C(C(N)=O)C(=O)[C@@]2(O)C(O)=C3C(=O)c4c(O)ccc(Cl)c4[C@@](C)(O)[C@H]3C[C@@H]12 [Chlortetracycline] + C/C(=C\C(=O)OCCCCCCCCC(=O)O)C[C@@H]1OC[C@H](C[C@@H]2O[C@H]2[C@@H](C)[C@H](C)O)[C@@H](O)[C@H]1O [Pseudomonic acid]
fitness
Conditions | first compound 0.012 µg/mL | first compound 0.024 µg/mL | first compound 0.048 µg/mL | first compound 0.375 µg/mL | first compound 0.75 µg/mL | first compound 1.5 µg/mL
partner 0.03 µg/mL | 0.884 | 0.853 | 0.829 | 0.0434 | 0.0614 | 0.0477
partner 0.06 µg/mL | 0.78 | 0.75 | 0.779 | 0.0787 | 0.0801 | 0.0542
partner 0.12 µg/mL | 0.57 | 0.586 | 0.62 | 0.0891 | 0.0486 | 0.0665

CC(=O)Oc1ccccc1C(=O)O [Acetylsalicylic acid] + C[C@@H](O)[C@H]1C(=O)N2C(C(=O)O)=C(SCCNC=N)C[C@H]12 [Imipenem]
fitness
Conditions | partner 0.005 µg/mL | partner 0.0065 µg/mL | partner 0.01 µg/mL | partner 0.013 µg/mL | partner 0.02 µg/mL | partner 0.026 µg/mL
first compound 250 µg/mL | 0.948 | 0.983 | 0.898 | 0.953 | 0.912 | 0.914
first compound 500 µg/mL | 0.956 | 0.969 | 0.954 | 0.993 | 0.955 | 0.912
first compound 1000 µg/mL | 0.856 | 0.868 | 0.85 | 0.943 | 0.813 | 0.907

CC(=O)Oc1ccccc1C(=O)O [Acetylsalicylic acid] + C/C(=C\C(=O)OCCCCCCCCC(=O)O)C[C@@H]1OC[C@H](C[C@@H]2O[C@H]2[C@@H](C)[C@H](C)O)[C@@H](O)[C@H]1O [Pseudomonic acid]
fitness
Conditions | first compound 250 µg/mL | first compound 500 µg/mL | first compound 1000 µg/mL
partner 0.03 µg/mL | 0.933 | 0.9 | 0.825
partner 0.06 µg/mL | 0.822 | 0.723 | –
partner 0.12 µg/mL | 0.542 | 0.488 | 0.383

CC(=O)Oc1ccccc1C(=O)O [Acetylsalicylic acid] + O=C(O)c1cn(C2CC2)c2cc(N3CCNCC3)c(F)cc2c1=O [Ciprofloxacin]
fitness
Conditions | first compound 250 µg/mL | first compound 500 µg/mL | first compound 1000 µg/mL
partner 0.125 µg/mL | 0.963 | 0.907 | 0.863
partner 0.25 µg/mL | 0.883 | 0.904 | 0.833
partner 0.5 µg/mL | 0.835 | 0.835 | 0.719

C[C@H]1c2cccc(O)c2C(=O)C2=C(O)[C@]3(O)C(=O)C(C(N)=O)=C(O)[C@@H](N(C)C)[C@@H]3[C@@H](O)[C@@H]21 [Doxycycline] + CO[C@@]12[C@H](COC(N)=O)C3=C(C(=O)C(C)=C(N)C3=O)N1C[C@@H]1N[C@@H]12 [Mitomycin C]
fitness, one replicate
Conditions | first compound 0.003875 µg/mL | first compound 0.00775 µg/mL | first compound 0.031 µg/mL | first compound 0.062 µg/mL
partner 0.002 µg/mL | 0.897 | 0.823 | 0.833 | 0.64
partner 0.004 µg/mL | 0.848 | 0.828 | 0.783 | 0.616
partner 0.008 µg/mL | 0.615 | 0.622 | 0.622 | 0.456

fitness
Conditions | partner 0.001075 µg/mL | partner 0.002 µg/mL | partner 0.00215 µg/mL | partner 0.004 µg/mL | partner 0.0043 µg/mL | partner 0.008 µg/mL
first compound 0.0155 µg/mL | 0.863 | 0.82 | 0.819 | 0.792 | 0.717 | 0.699
first compound 0.031 µg/mL | 0.816 | – | 0.814 | – | 0.649 | –
first compound 0.062 µg/mL | 0.743 | – | 0.771 | – | 0.63 | –

Source: the supplement of paper PMC10627819
